# Source: patent US20230190852A1, “COMPOSITIONS AND METHODS FOR JOINT HEALTH” (Unigen, Inc., priority 2013, published 2023)
# Marks after values point to notes of the source that are not given here.
# Experiments:
# [1] = system: Rabbit cartilage explants; test: Ex vivo glycosaminoglycans (GAG) release assay; type: cell-based; conditions: for activity at 6.25 µg/mL / activity at 12.5 µg/mL / activity at 25 µg/mL / activity at 50 µg/mL / activity at 100 µg/mL: Oryctolagus cuniculus, 24 h; for activity at 6.25 µg/mL: 6.25 μg/ml; for activity at 12.5 µg/mL: 12.5 μg/ml; for activity at 25 µg/mL: 25 μg/ml; for activity at 50 µg/mL: 50 μg/ml; for activity at 100 µg/mL: 100 μg/ml; for protective effect on rhIL-1α-mediated PG degradation / GAG release: rhIL-1α 5 ng/ml
# Description: Articular cartilage from hock joints of rabbits (2.5 kg body weight) was removed immediately after each animal was sacrificed and articular cartilage explants were obtained by following the method described by Sandy et al. (Biochem. Biophy Acta 543:36, 1978). Briefly, after the articular surfaces were surgically exposed under sterile conditions, approximately 200-220 mg articular surfaces per joint were dissected and submerged into complete medium (DMEM, supplemented with heat inactivated 5% FBS; penicillin 100 U/ml; streptomycin 100 ug/ml). They were then rinsed several times with the complete medium and incubated for 1 to 2 days at 37° C. in a humidified 5% CO2/95% air incubator for stabilization. The complete medium was replaced with a basal medium (DMEM, supplemented with heat-inactivated 1% FBS, 10 mM HEPES, and penicillin 100 U/ml streptomycin 100 μg/ml). Approximately 30 mg cartilage pieces (2×3×0.35 mm/piece) were placed in 24-well plates and treated with given concentrations of test agents. After pretreatment for 1 h, 5 ng/ml of rhIL-1α was added to the culture medium and further incubated at 37° C. in a humidified 5% CO2/95% air incubator. The culture medium was collected 24 h later and stored at −20° C. until assay.
# The amount of sulphated GAGs (e.g., released from proteoglycans) in the medium at the end of the reaction reflects the amount of articular cartilage degradation, which was determined using the commercially available 1,9-dimethy-methylene blue method according to the instructions of the manufacturer (Blyscan™ assay, Accurate Chemical and Scientific Corp., Westbury, N.Y.).
# Lewis rats = test: Carrageenan-induced rat paw edema model (paw edema and pain sensitivity); type: in vivo; conditions: for Pain sensitivity, percent change of vehicle / Paw edema, percent change of vehicle: 100 mg/kg oral 1 hr after carrageenan, female Lewis rats; for Pain sensitivity (Analgesia), percent change vs. vehicle, 1 hr / Paw Edema (Inflammation), percent change vs. vehicle, 1 hr: 1 hr after treatment; for Pain sensitivity (Analgesia), percent change vs. vehicle, 3 hr / Paw Edema (Inflammation), percent change vs. vehicle, 3 hr: 3 hr after treatment; for Pain sensitivity (Analgesia), percent change vs. vehicle, 5 hr / Paw Edema (Inflammation), percent change vs. vehicle, 5 hr: 5 hr after treatment; for analgesic and anti-inflammatory activity: oral, rosmarinic acid 200 mg/kg, eriocitrin 100 mg/kg, NAG 166 mg/kg
# Description: Local inflammation was induced by intraplantar injection of carrageenan λ (Sigma, St. Louis, Mo.; 100 μl of 1% [w/v] in saline) into the plantar surface of right hind paw of sedated rat (with 2.5% isoflurane) at time 0 (T=0) (Gamache et al., J Neurosurg. 65:679, 1986; Guay et al., J. Biol. Chem. 279:24866, 2004; Chou et al., Anesth. Analg. 97:1724, 2003). Rats were acclimated in a procedure room for 20-30 minutes before each measurement was taken. Allodynia was evaluated by measuring responsiveness to the tip of a Randell-Selitto paw pressure test applied perpendicular to the central plantar surface of the right hind paw. A positive response to the applied pressure, noted by sharp withdrawal of the paw, was recorded automatically by an electronic Von Frey Anesthesiometer (2390 series Electrovonfrey, IITC, Woodland Hills, Calif.) (Vivancos et al., Braz. J. Med. Biol. Res. 37:391, 2004). Mechanical allodynia was evaluated before carrageenan inoculation, and thereafter at 1 hr, 2 hr, 4 hr and 6 hr. Paw edema volume was measured with the use of Plethysmometer (IITC, Woodland Hills, Calif.; Model 520) at time 0 (before carrageenan), and then 1 hr, 2 hr, 4 hr, and 6 hr after carrageenan injection. Animals (N=5 per group) were orally gavaged with a positive control ibuprofen (Spectrum Chemical MFG, Gardena, Calif.) (100 or 200 mg/kg); test articles such as: extracts, and combinations of extracts at various doses from 100, 200, 300 to 400 mg/kg and vehicle control (propylene glycol) were given 1 hour after carrageenan inoculation unless specified otherwise.
# Sprague-Dawley (SD) rats = test: Monosodium iodoacetate (MIA) induced osteoarthritis rat model; type: in vivo; conditions: for reduction in pain sensitivity: 10 mg/kg oral per day; for Pain sensitivity, % (of week 0 mean) / Pain sensitivity, Mean: oral 10 mg/kg
# Description: The animals were randomized and assigned to treatment groups before the study began. After anesthetization with isoflurane, rats were injected with 50 μl containing 1 mg Monosodium iodoacetate (Sigma, St. Louis, Mo.; lot #SLBB6147V) using a 26 gauge needle inserted through the patellar ligament into the intra-articular space of the right knee. Normal rats were injected with an equivalent volume of saline instead of MIA. […] The first sample treatment was administered 1 hr before MIA injection. Normal and control rats were given orally an equal volume of vehicle (0.5% CMC in saline). Body weight and allodynia were measured once a week for 4 weeks. Allodynia was evaluated by measuring responsiveness to a tip of Randall-Selitto test (2390 series, IITC, Woodland Hills, Calif.) applied perpendicular to the central plantar surface of the right hind paw.
# Male Sprague—Dawley (SD) rats weighing about 170 to about 230 g (6 weeks of age) were purchased and acclimated for one week. […] Each group was orally gavaged with their respective treatment. Anesthetized rats were injected with 0.8 mg of MIA in a 50 μl saline solution into the intra-articular pocket one hour after the second dose of treatments. Pain sensitivity was measured once a week using a Randall-Salitto meter and treatment lasted for 6 weeks. Body weights were measured once a week to calculate the respective weekly dosage of each group.
# [2] = rabbit cartilage explants with rhIL-1α 5 ng/ml (=100)
# [3] = rhIL-1α 5 ng/ml (IL-1α alone = 100)
# [4] = 100 mg/kg oral, listed as eriocitrin
# [5] = MIA OA rats, 10 mg/kg oral, 6 weeks, modified Mankin scoring
smiles,measurement,setting,value
"CC(C)=CCC12Oc3c(c(O)cc(O)c3C3C=C(C)CC(c4ccc(O)cc4O)C3C(=O)c3ccc(O)cc3O)C(=O)C1(O)Oc1cc(O)ccc12 (centres unmarked) [Compound 15, cathayanon A]",activity at 6.25 µg/mL,[1]; [2],101%
same,activity at 12.5 µg/mL,[1]; [2],99.1%
same,activity at 25 µg/mL,[1]; [2],81.3%
same,activity at 50 µg/mL,[1]; [2],72.4%
CC(C)=CCc1c(-c2ccc(O)cc2O)oc2c3c(cc(O)c2c1=O)OC(C)(C)C=C3 [Morusin],"Pain sensitivity, percent change of vehicle",Lewis rats; 1 hr,33.3* %
same,"Paw edema, percent change of vehicle",Lewis rats; 1 hr,37.3* %
same,"Pain sensitivity, percent change of vehicle",Lewis rats; 3 hr,38.5* %
same,"Paw edema, percent change of vehicle",Lewis rats; 3 hr,40.0* %
same,"Pain sensitivity, percent change of vehicle",Lewis rats; 5 hr,30.2* %
same,"Paw edema, percent change of vehicle",Lewis rats; 5 hr,38.0* %
same,activity at 25 µg/mL,[1]; [3],48.4%
same,activity at 50 µg/mL,[1]; [3],49.9%
same,activity at 100 µg/mL,[1]; [3],33.6%
same,protective effect on rhIL-1α-mediated PG degradation / GAG release,[1],strong inhibitory effect
CC(C)=CCc1c(-c2ccc(O)cc2O)oc2c(C3C=C(C)CC(c4ccc(O)cc4O)C3C(=O)c3ccc(O)cc3O)c(O)cc(O)c2c1=O (centres unmarked) [Kuwanon G],"Pain sensitivity, percent change of vehicle",Lewis rats; 1 hr,33.3* %
same,"Paw edema, percent change of vehicle",Lewis rats; 1 hr,36.5* %
same,"Pain sensitivity, percent change of vehicle",Lewis rats; 3 hr,40.5* %
same,"Paw edema, percent change of vehicle",Lewis rats; 3 hr,37.7* %
same,"Pain sensitivity, percent change of vehicle",Lewis rats; 5 hr,31.2* %
same,"Paw edema, percent change of vehicle",Lewis rats; 5 hr,29.3* %
same,activity at 25 µg/mL,[1]; [3],56.6%
same,activity at 50 µg/mL,[1]; [3],48%
same,activity at 100 µg/mL,[1]; [3],44.4%
Oc1cc(O)cc(/C=C/c2ccc(O)cc2O)c1 [Oxyresveratrol],"Pain sensitivity, percent change of vehicle",Lewis rats; 1 hr,53.3* %
same,"Paw edema, percent change of vehicle",Lewis rats; 1 hr,44.7* %
same,"Pain sensitivity, percent change of vehicle",Lewis rats; 3 hr,54.8* %
same,"Paw edema, percent change of vehicle",Lewis rats; 3 hr,54.5* %
same,"Pain sensitivity, percent change of vehicle",Lewis rats; 5 hr,38.5* %
same,"Paw edema, percent change of vehicle",Lewis rats; 5 hr,38.3* %
same,activity at 25 µg/mL,[1]; [3],59.8%
same,protective effect on rhIL-1α-mediated PG degradation / GAG release,[1],strong inhibitory effect
"COc1cc(O)c(CC=C(C)C)c2c1C(=O)CC(c1ccc(O)cc1)O2 (centres unmarked) [Compound 14, isoxanthohumol]",activity at 6.25 µg/mL,[1]; [2],97.8%
same,activity at 12.5 µg/mL,[1]; [2],73.5%
same,activity at 25 µg/mL,[1]; [2],41.7%
same,activity at 50 µg/mL,[1]; [2],37.3%
C[C@@H]1O[C@@H](OC[C@H]2O[C@@H](Oc3cc(O)c4c(c3)O[C@H](c3ccc(O)c(O)c3)CC4=O)[C@H](O)[C@@H](O)[C@@H]2O)[C@H](O)[C@H](O)[C@H]1O [Eriocitrin],"Pain sensitivity (Analgesia), percent change vs. vehicle, 1 hr",Lewis rats; 100 mg/kg oral,20.4* %
same,"Paw Edema (Inflammation), percent change vs. vehicle, 1 hr",Lewis rats; 100 mg/kg oral,17.2%
same,"Pain sensitivity (Analgesia), percent change vs. vehicle, 1 hr",Lewis rats; [4],20.4%
same,"Pain sensitivity (Analgesia), percent change vs. vehicle, 3 hr",Lewis rats; 100 mg/kg oral,36.4* %
same,"Paw Edema (Inflammation), percent change vs. vehicle, 3 hr",Lewis rats; 100 mg/kg oral,36.0* %
same,"Pain sensitivity (Analgesia), percent change vs. vehicle, 3 hr",Lewis rats; [4],36.4%
same,"Paw Edema (Inflammation), percent change vs. vehicle, 3 hr",Lewis rats; [4],36.0%
same,"Pain sensitivity (Analgesia), percent change vs. vehicle, 5 hr",Lewis rats; 100 mg/kg oral,25.2* %
same,"Paw Edema (Inflammation), percent change vs. vehicle, 5 hr",Lewis rats; 100 mg/kg oral,30.0* %
same,"Pain sensitivity (Analgesia), percent change vs. vehicle, 5 hr",Lewis rats; [4],25.2%
same,"Paw Edema (Inflammation), percent change vs. vehicle, 5 hr",Lewis rats; [4],30.0%
same,analgesic and anti-inflammatory activity,Lewis rats,significant anti-inflammatory and analgesic activities
CC1(C)C=Cc2c(ccc3c2OC[C@@H](c2ccc(O)cc2O)C3)O1 [glabridin],activity at 6.25 µg/mL,[1]; [2],66.1%
same,activity at 12.5 µg/mL,[1]; [2],47.9%
same,activity at 25 µg/mL,[1]; [2],47.5%
same,activity at 50 µg/mL,[1]; [2],46.3%
"COc1cc(O)c(CC=C(C)C)c(O)c1C(=O)/C=C/c1ccc(O)cc1 [Compound 13, xanthohumol]",activity at 6.25 µg/mL,[1]; [2],77.4%
same,activity at 12.5 µg/mL,[1]; [2],55.3%
same,activity at 25 µg/mL,[1]; [2],59.2%
same,activity at 50 µg/mL,[1]; [2],51.2%
"O=C(/C=C/c1ccc(O)c(O)c1)O[C@H](Cc1ccc(O)c(O)c1)C(=O)O [RA, Rosmarinic acid]","Pain sensitivity (Analgesia), percent change vs. vehicle, 1 hr",Lewis rats; 200 mg/kg oral,38.9%
same,"Paw Edema (Inflammation), percent change vs. vehicle, 1 hr",Lewis rats; 200 mg/kg oral,29.9%
same,"Pain sensitivity (Analgesia), percent change vs. vehicle, 3 hr",Lewis rats; 200 mg/kg oral,45.0%
same,"Paw Edema (Inflammation), percent change vs. vehicle, 3 hr",Lewis rats; 200 mg/kg oral,35.7%
same,"Pain sensitivity (Analgesia), percent change vs. vehicle, 5 hr",Lewis rats; 200 mg/kg oral,30.6%
same,"Paw Edema (Inflammation), percent change vs. vehicle, 5 hr",Lewis rats; 200 mg/kg oral,34.6%
same,analgesic and anti-inflammatory activity,Lewis rats,significant anti-inflammatory and analgesic activities
"OC[C@H]1O[C@@H](Oc2cc(O)cc(/C=C/c3ccc(O[C@@H]4O[C@H](CO)[C@@H](O)[C@H](O)[C@H]4O)cc3O)c2)[C@H](O)[C@@H](O)[C@@H]1O [Mulberoside A, mulberroside A]","Pain sensitivity, percent change of vehicle",Lewis rats; 1 hr,54.2* %
same,"Paw edema, percent change of vehicle",Lewis rats; 1 hr,48.4* %
same,"Pain sensitivity, percent change of vehicle",Lewis rats; 3 hr,52.2* %
same,"Paw edema, percent change of vehicle",Lewis rats; 3 hr,50.6* %
same,"Pain sensitivity, percent change of vehicle",Lewis rats; 5 hr,35.5* %
same,"Paw edema, percent change of vehicle",Lewis rats; 5 hr,37.3* %
same,activity at 25 µg/mL,[1]; [3],73.1%
same,activity at 50 µg/mL,[1]; [3],75.8%
same,activity at 100 µg/mL,[1]; [3],70.5%
same,protective effect on rhIL-1α-mediated PG degradation / GAG release,[1],strong inhibitory effect
O=C(O)Cc1ccccc1Nc1c(Cl)cccc1Cl [Diclofenac],reduction in pain sensitivity,Sprague-Dawley (SD) rats; week 5,20.8%
same,reduction in pain sensitivity,Sprague-Dawley (SD) rats; week 6,18.2%
same,"articular cartilage matrix integrity, total Mankin score vs. vehicle","Sprague-Dawley (SD) rats; G:M 500 mg/kg, Diclofenac 10 mg/kg, 6 weeks",not statistically significant
same,Total Mankin Score,"Sprague-Dawley (SD) rats; MIA OA rats, 10 mg/kg oral, 6 weeks",4.9 ± 2.69
same,Cellular Abnormality (0-3) histopathological score,Sprague-Dawley (SD) rats; [5],1.3 ± 0.67
same,Safranin-O Staining (0-4) histopathological score,Sprague-Dawley (SD) rats; [5],1.7 ± 0.82
same,"Pain sensitivity, % (of week 0 mean)","Sprague-Dawley (SD) rats; MIA OA rats, Week 0",100.00%
same,"Pain sensitivity, Mean","Sprague-Dawley (SD) rats; MIA OA rats, Week 0, Randall-Salitto meter",173.20
same,"Pain sensitivity, % (of week 0 mean)","Sprague-Dawley (SD) rats; MIA OA rats, Week 1",84.51%
same,"Pain sensitivity, Mean","Sprague-Dawley (SD) rats; MIA OA rats, Week 1, Randall-Salitto meter",146.37
same,"Pain sensitivity, % (of week 0 mean)","Sprague-Dawley (SD) rats; MIA OA rats, Week 2",89.88%
same,"Pain sensitivity, Mean","Sprague-Dawley (SD) rats; MIA OA rats, Week 2, Randall-Salitto meter",155.67
same,"Pain sensitivity, % (of week 0 mean)","Sprague-Dawley (SD) rats; MIA OA rats, Week 3",94.05%
same,"Pain sensitivity, Mean","Sprague-Dawley (SD) rats; MIA OA rats, Week 3, Randall-Salitto meter",162.90
same,"Pain sensitivity, % (of week 0 mean)","Sprague-Dawley (SD) rats; MIA OA rats, Week 4",87.12%
same,"Pain sensitivity, Mean","Sprague-Dawley (SD) rats; MIA OA rats, Week 4, Randall-Salitto meter",150.90
same,"Pain sensitivity, % (of week 0 mean)","Sprague-Dawley (SD) rats; MIA OA rats, Week 5",84.43%
same,"Pain sensitivity, Mean","Sprague-Dawley (SD) rats; MIA OA rats, Week 5, Randall-Salitto meter",146.23
same,"Pain sensitivity, % (of week 0 mean)","Sprague-Dawley (SD) rats; MIA OA rats, Week 6",83.28%
same,"Pain sensitivity, Mean","Sprague-Dawley (SD) rats; MIA OA rats, Week 6, Randall-Salitto meter",144.23
